Reference: US20150017628A1, “CRYOPRESERVATION OF CELLS IN ABSENCE OF VITRIFICATION INDUCING AGENTS” (UNIVERSITY OF WARWICK, priority 2012, published 2015)

Assays:
[1] = Ice recrystallisation inhibition (IRI) modified splat assay; format: physicochemical; conditions: at these concentrations (1-10 mg·mL^-1)
Method: Determination of RI activity was achieved using a modified “splat” assay. A 10 μL droplet of the analyte solution in PBS was expelled at a fixed height of 2 m onto a glass coverslip placed upon a pre-cooled (CO2(s)) aluminium plate. This was immediately transferred onto the pre-cooled microscope stage (−6° C.) and left to anneal for 30 minutes. Photographs of the wafer were taken at both 0 and 30 minutes through crossed polarizers. A large number of the ice crystals (30+) were then measured to find the largest grain size dimension along any axis. The average largest value from 3 individual photographs was calculated to give the mean largest grain size (MLGS). Reported errors are the coefficient of variation (standard deviation/mean) from a minimum of 3 individual data sets. Values are reported as the MLGS relative to that obtained for PBS alone.
A polynucleated wafer of ice crystals (each ice crystal is <30 μm) was made from phosphate buffered saline (PBS) solutions of the additive being investigated. Following annealing at −6° C. for 30 minutes, the wafers were imaged through crossed polarisers and the size of the crystals measured. In addition to PVA, two common biocompatible polymers were also assessed for IRI activity; dextran and poly(ethylene glycol) (PEG, FIG. 1C), as they are both commonly added to cryopreservative solutions.

erythrocytes = assay: Cryoprotectant haemocompatibility / cytotoxicity (haemolysis of erythrocytes); format: cell-based, ovine
Method: A 40 μL aliquot of the thawed erythrocyte solution was added to 400 μL PBS and centrifuged (1000×g, 5 min, 4° C.) to remove intact cells. 50 μL of the supernatant was added to 150 μL PBS in a 96-well plate and an absorbance measurement at 450 nm recorded to assess the extent of haemoglobin leakage. 100% haemolysis samples were prepared by osmotic shock through addition of 500 μL H2O to 500 μL erythrocytes suspension and the sample was vortexed vigorously. Control (0% haemolysis) samples were prepared by the addition of 500 μL PBS to 500 μL erythrocytes and left at room temperature (25° C.) for 60 minutes. All measurements were repeated a minimum of 5 times and the reported errors are the coefficient of variation (standard deviation/mean).
Erythrocytes were prepared as described above. A 500 μL aliquot of erythrocytes was added to 500 μL of the polymer or DMSO in PBS and mixed by inversion. The samples were incubated at 25° C. for 120 minutes before analysis. Haemolysis was measured in the same method as used for cryopreservation studies (above). All measurements were repeated in triplicate.
Fresh ovine (defibrinated) erythrocytes were prepared in an identical manner as aforementioned. Samples were prepared in triplicate. A 500 μL aliquot of erythrocytes was added to 500 μL 2× final concentration cryoprotectant in PBS and mixed by inversion. The samples were incubated at room temperature for 120 minutes before analysis. […] This is in contrast to some examples that defined toxicity only at levels exceeding 10% haemolysis. Concentrations higher than this were not deemed necessary for assessment.

Row | Structure (SMILES) | IRI activity of common vitrification solvents [1] | concentration above which significant haemolysis was observed (erythrocytes; 120 minutes at 25° C.) | concentration above which significant haemolysis was observed (erythrocytes; 120 minutes at room temperature, significant haemolysis >5%) | haemolytic property of common cryoprotectant (erythrocytes; general statement)
1 | C[S+](C)[O-] [DMSO, dimethylsulfoxide] | little or no IRI activity | Above 1.5 w/v % | Above 1.5 wt % | strongly haemolytic
2 | OCC(O)CO [glycerol] | little or no IRI activity |  |  | 
